# Values of other authors, collected in patent US20060160700A1, “Nadh-dependent cytochrome b5 reductase as target for herbicides” (Basf Aktiengesellschaft, priority 2002, published 2006).
# Experiments:
# [1] = tested on: NADH-dependent cytochrome b5 reductase from various organisms; conditions: enzyme from various organisms; Golf et al. 1985, Tamura et al. 1983
# [2] = molecular target: T1, NADH-dependent cytochrome b5 reductase from human erthyrocytes (Homo sapiens, UniProt P00387); conditions: enzyme from human erythrocytes; Palmieri et al. 1990
# T1 construct: host or cells: human erythrocytes
# T1 sequence (P00387 24-301 limits assumed): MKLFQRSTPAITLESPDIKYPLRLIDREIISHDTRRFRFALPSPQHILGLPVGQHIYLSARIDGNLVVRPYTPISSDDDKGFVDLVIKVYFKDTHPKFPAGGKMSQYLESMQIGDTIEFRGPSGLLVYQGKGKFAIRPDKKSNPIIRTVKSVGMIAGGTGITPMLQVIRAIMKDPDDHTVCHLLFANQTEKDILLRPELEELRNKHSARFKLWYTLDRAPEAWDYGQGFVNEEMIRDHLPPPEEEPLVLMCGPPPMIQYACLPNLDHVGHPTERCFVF
# [3] = molecular target: T2, NADH-dependent cytochrome b5 reductase from rat liver microsomes (Rattus norvegicus, UniProt P20070); conditions: at a concentration of 0.5 mM, Golf et al. 1985
# T2 construct: host or cells: rat liver microsomes
# T2 sequence (P20070 1-301): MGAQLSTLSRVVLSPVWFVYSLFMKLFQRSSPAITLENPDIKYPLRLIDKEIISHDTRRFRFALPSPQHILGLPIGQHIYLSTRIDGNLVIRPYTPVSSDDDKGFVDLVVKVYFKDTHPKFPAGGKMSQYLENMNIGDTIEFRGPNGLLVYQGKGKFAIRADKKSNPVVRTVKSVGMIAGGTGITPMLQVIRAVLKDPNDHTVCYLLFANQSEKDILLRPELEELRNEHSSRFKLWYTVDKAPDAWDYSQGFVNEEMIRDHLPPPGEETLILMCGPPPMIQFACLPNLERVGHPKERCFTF
Compound,inhibition of NADH-dependent cytochrome b5 reductase (result in words) [1],other results
CCN1C(=O)C=CC1=O [N-ethylmaleimide],capable of inhibiting,
CCC1(CCC(C)C)C(=O)NC(=O)NC1=O [amytal],capable of inhibiting,
O=c1oc2ccccc2c(O)c1Cc1c(O)c2ccccc2oc1=O [dicoumarol],capable of inhibiting,
O=P(O)(O)O[C@H]1[C@H](OP(=O)(O)O)[C@@H](OP(=O)(O)O)[C@H](OP(=O)(O)O)[C@@H](OP(=O)(O)O)[C@H]1OP(=O)(O)O [inositol hexaphosphate],,concentrations that inhibit the NADH-dependent cytochrome b5 reductase [2]: millimolar range
CCN(CC)CCCC(C)Nc1c2ccc(Cl)cc2nc2ccc(OC)cc12 (stereo not drawn) [mepacrin],capable of inhibiting,
O=C(CC(=O)C(F)(F)F)c1cccs1 [thenoyltrifluoroacetone],,inhibition of NADH-dependent cytochrome b5 reductase [3]: 50%
